Read-outs that look alike come from different tables or passages of the source.
How the values were obtained:
[1] = system: pAKT in BT474 cells; test: Cell-based pAKT HTRF assay in BT474 cells; conditions: BT474 cells, 4 hr incubation, read-out: pAKT inhibition IC50 in BT474 cells
Summary of the method: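 BT474 cells in DMEM/10% FBS were treated the day after seeding with a 9-point, 3-fold compound series from 3 μM (0.25% DMSO) for 4 hr. Lysates were mixed with d2 and Eu cryptate anti-pAKT antibodies and incubated 4-24 h at room temperature. HTRF was read with excitation at 320 nm and emission at 615 nm.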

[2] = biological target: Cys242 in human PIK3CA (157-299) (Homo sapiens (Human), UniProt P42336); test: Covalent modification assay using MALDI-TOF MS; assay type: biochemical; conditions: 4 h reaction time point
Summary of the method: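 PIK3CA (157-299) at 3.33 μM or 1 μM in 20 mM HEPES, 150 mM NaCl, 2 mM MgCl2, pH 7.3 was incubated with compound (from 10 mM DMSO stocks) in the dark at room temperature for 15 min, 30 min, 2 h or 4 h. Linear-mode MALDI-TOF peak heights gave percent modification.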

[3] = 3.33 μM protein target, 1:7.5 protein to compound ratio (compounds 1-852)
[4] = 1 μM protein target, 1:5 protein to compound ratio (compounds 853-1279)
[5] = Homo sapiens, BT-474, Compounds 10-999

Chain of Cys242 in human PIK3CA (157-299) (P42336 157-299): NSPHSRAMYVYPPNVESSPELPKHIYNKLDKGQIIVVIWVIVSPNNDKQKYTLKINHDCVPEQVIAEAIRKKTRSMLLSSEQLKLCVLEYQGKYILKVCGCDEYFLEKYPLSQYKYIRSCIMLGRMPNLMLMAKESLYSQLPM

Compound | IC50 ([1]; Compounds 10-999) | % of modification [2, 3] | % of modification [2, 4] | IC50 ([1]; Compounds 1000-1279) | IC50 [1, 5]
C=C(F)C(=O)N1CCn2nc(-c3nc(-c4ccc5c(c4)CNC5=O)c4ccsc4c3-c3c(F)cc(F)cc3OC[C@@H](C)O)cc2C1 [Compound 517] | 100 to 1000 nM | B (50%<percent of modification <75%) |  |  | 
C=CC(=O)N1CCn2nc(-c3nc(-c4cnc5c(c4)CNC5=O)c4ccsc4c3-c3c(F)cc(F)cc3OCCO)cc2C1C (stereo not shown) [Compound 961] | 100 to 1000 nM |  | A (percent of modification of PIK3CA protein ≥75%) |  | 
C=CC(=O)N1C[C@H](C)n2nc(-c3nc(-c4cnn(C)c4)c4ccsc4c3-c3c(F)cc(F)cc3OCCOC)cc2[C@@H]1C [Compound 603] | 1000 to 3000 nM | D (percent of modification <25%) |  |  | 
C=CC(=O)N1CCn2nc(-c3nc(-c4ccc(=O)n(C(C)C)c4)c4ccsc4c3-c3c(F)cc(F)cc3OCCOC)cc2C1C (stereo not shown) [Compound 987] | < 100 nM |  | A (percent of modification of PIK3CA protein ≥75%) |  | 
C=CC(=O)N1Cc2cc(-c3nc(-c4cnnc(C)c4)c4ccsc4c3-c3c(F)cc(F)cc3OCCOC)nn2[C@@H](C)C1 [Compound 740] | < 100 nM | A (percent of modification of PIK3CA protein ≥75%) |  |  | 
C=CC(=O)N1CCn2nc(-c3nc(-c4ccc5c(cnn5C)c4F)c4ccsc4c3-c3c(F)cc(F)cc3OCCO)cc2[C@H]1C (single isomer, unassigned) [Compound 1145] |  |  | A (percent of modification of PIK3CA protein ≥75%) | < 100 nM | 
C=CC(=O)N1CCn2nc(-c3nc(-c4ccc(CC(=O)N(C)C)cc4)c4ccsc4c3-c3c(F)cc(F)cc3OC)cc2[C@H]1C (single isomer, unassigned) [Compound 1146] |  |  | A (percent of modification of PIK3CA protein ≥75%) | < 100 nM | 
C=CC(=O)N1CCc2nc(-c3nc(-c4ccc5c(c4)CCN(C)C5)c4ccsc4c3-c3c(F)cc(F)cc3OCC(F)F)sc2C1 [Compound 470] | 100 to 1000 nM | A (percent of modification of PIK3CA protein ≥75%) |  |  | 
C=CC(=O)N1Cc2cc(-c3nc(-c4ccc5c(c4)CN(C)C5=O)c4ccsc4c3-c3c(F)cc(F)cc3OC)nn2C(C)C1 (stereo not shown) [Compound 911] | 100 to 1000 nM |  | B (50%<percent of modification <75%) |  | 
C=CC(=O)N1CCn2nc(-c3nc(-c4ccc(C5(C(=O)NC)CC5)cc4)c4ccsc4c3-c3c(F)cc(F)cc3OC)cc2[C@H]1C (single isomer, unassigned) [Compound 1151] |  |  | A (percent of modification of PIK3CA protein ≥75%) | 100 to 1000 nM | 
C=CC(=O)N1CCn2nc(-c3nc(-c4ccc5c(c4)CN(C)CC5(F)F)c4ccsc4c3-c3c(F)cc(F)cc3OC)cc2C1C (stereo not shown) [Compound 1275] |  |  | A (percent of modification of PIK3CA protein ≥75%) | < 100 nM | 
C=CC(=O)N1CCn2nc(-c3nc(-c4cnn(C)c4)c4c(c3-c3ccc(F)cc3OC)C(F)CC4)cc2C1 (stereo not shown) [Compound 574, 1-(2-(5-fluoro-4-(4-fluoro-2-methoxyphenyl)-1-(1-methyl-1H-pyrazol-4-yl)-6,7-dihydro-5H-cyclopenta[c]pyridin-3-yl)-6,7-dihydropyrazolo[1,5-a]pyrazin-5(4H)-yl)prop-2-en-1-one] |  | A (percent of modification of PIK3CA protein ≥75%) |  |  | < 100 nM
C=CC(=O)N1Cc2cc(-c3nc(-c4ccc5c(=O)n(C)ncc5c4)c4ccsc4c3-c3c(F)cc(F)cc3OCCOC)nn2C[C@H]1C [Compound 849] | < 100 nM | A (percent of modification of PIK3CA protein ≥75%) |  |  | 
C=CC(=O)N1CCn2nc(-c3nc(-c4ccc5c(c4)CCN(C(C)C)C5)c4ccsc4c3-c3ccc(F)cc3OCCOC)cc2C1 [Compound 190, 1-[2-[7-[4-fluoro-2-(2-methoxyethoxy)phenyl]-4-(2-isopropyl-3,4-dihydro-1H-isoquinolin-6-yl)thieno[3,2-c]pyridin-6-yl]-6,7-dihydro-4H-pyrazolo[1,5-a]pyrazin-5-yl]prop-2-en-1-one] |  | A (percent of modification of PIK3CA protein ≥75%) |  |  | < 100 nM
C=C(F)C(=O)N1CCn2nc(-c3nc(-c4ccc5c(c4)CCN(C)C5)c4ccsc4c3-c3c(F)cc(F)cc3OCC(C)O)cc2C1 (stereo not shown) [Compound 527] | 100 to 1000 nM | B (50%<percent of modification <75%) |  |  | 
C=CC(=O)N1CCn2nc(-c3nc(-c4ccc5ncc(=O)n(C)c5c4)c4ccsc4c3-c3c(F)cc(F)cc3OCCO)cc2[C@H]1C [Compound 979] | < 100 nM |  | A (percent of modification of PIK3CA protein ≥75%) |  | 

Compound | IC50 ([1]; Compounds 10-999) | % of modification [2, 3] | % of modification [2, 4] | IC50 ([1]; Compounds 1000-1279) | IC50 [1, 5]
C=CC(=O)N1CCn2nc(-c3nc(-c4ccc5c(c4)CCNC5=O)c4ccsc4c3-c3ccc(F)cc3OCCOC)nc2C1 [Compound 184] | < 100 nM | A (percent of modification of PIK3CA protein ≥75%) |  |  | 
C=CC(=O)N1CCc2ccc(-c3nc(-c4cnc5c(c4)CNC(=O)C5)c4ccsc4c3-c3c(F)cc(F)cc3OC(C)C)cc2C1 [Compound 499] | < 100 nM | A (percent of modification of PIK3CA protein ≥75%) |  |  | 
C=CC(=O)N1CCn2nc(-c3nc(-c4ccc(=O)n(C(C)C)c4)c4ccsc4c3-c3c(F)cc(F)cc3OCCO)cc2[C@H]1C [Compound 980] | < 100 nM |  | A (percent of modification of PIK3CA protein ≥75%) |  | 
C=CC(=O)N1CCn2nc(-c3nc(-c4cnn(C)c4)c4ccsc4c3-c3ccc(F)cc3OC(C)C)cc2C1C (stereo not shown) [Compound 394] | < 100 nM | A (percent of modification of PIK3CA protein ≥75%) |  |  | 
C=CC(=O)N1CCn2nc(-c3nc(-c4ccc(CC(=O)NC)cc4)c4ccsc4c3-c3c(F)cc(F)cc3OC)cc2C1C (stereo not shown) [Compound 1188] |  |  | A (percent of modification of PIK3CA protein ≥75%) | < 100 nM | 
C=CC(=O)N1Cc2cc(-c3nc(-c4cnnc(C)c4)c4ccsc4c3-c3c(F)cc(F)cc3OCCOC)nn2C[C@H]1C [Compound 633] | 1000 to 3000 nM | D (percent of modification <25%) |  |  | 
C=CC(=O)N1CCn2nc(-c3nc(-c4ccc5cn(C)nc5c4)c4ccsc4c3-c3c(F)cc(F)cc3OCCOC)cc2C1C (stereo not shown) [Compound 766] | < 100 nM | A (percent of modification of PIK3CA protein ≥75%) |  |  | 
C=CC(=O)N1CCc2nc(-c3nc(-c4ccc5c(c4)NC(=O)C5)c4ccsc4c3-c3c(F)cc(F)cc3OCCOC)sc2C1 [Compound 1003] |  |  | A (percent of modification of PIK3CA protein ≥75%) | < 100 nM | 
C=CC(=O)N1Cc2cc(-c3nc(-c4ccc5c(c4)CNC5=O)c4ccsc4c3-c3c(F)cc(F)cc3OCCOC)nn2C[C@H]1C [Compound 691] | < 100 nM | A (percent of modification of PIK3CA protein ≥75%) |  |  | 
C=CC(=O)N1CCn2nc(-c3nc(-c4ccc(=O)n(C)c4)c4ccsc4c3-c3c(F)cc(F)cc3OCCO)cc2C1C (stereo not shown) [Compound 872] | < 100 nM |  | A (percent of modification of PIK3CA protein ≥75%) |  | 
C=CC(=O)N1CCn2nc(-c3nc(-c4cncc(OCCN(C)C)c4)c4ccsc4c3-c3c(F)cc(F)cc3OCCOC)cc2C1C (stereo not shown) [Compound 1099] |  |  | A (percent of modification of PIK3CA protein ≥75%) | < 100 nM | 
C=CC(=O)N1Cc2cc(-c3nc(-c4cnn(CC(C)(C)O)c4)c4ccsc4c3-c3c(F)cc(F)cc3OCCOC)nn2[C@@H](C)C1 [Compound 491] | < 100 nM | A (percent of modification of PIK3CA protein ≥75%) |  |  | 
C=CC(=O)N1CCn2nc(-c3nc(-c4ccc5c(cnn5C)c4)c4ccsc4c3-c3c(F)cc(F)cc3OCC(C)O)cc2C1C (stereo not shown) [Compound 767] | < 100 nM | A (percent of modification of PIK3CA protein ≥75%) |  |  | 
C=CC(=O)N1CCc2cc(-c3nc(-c4ccc5ncn(C)c5c4)c4ccsc4c3-c3c(F)cc(F)cc3OC(C)C)nn2CC1 [Compound 573] | < 100 nM | A (percent of modification of PIK3CA protein ≥75%) |  |  | 
C=CC(=O)N1CCn2nc(-c3nc(N4CC5CCC(C4)N5C(C)=O)c4ccsc4c3-c3c(F)cc(F)cc3OCCOC)cc2C1C (stereo not shown) [Compound 1064] |  |  | C (25%≤percent of modification <50%) | 100 to 1000 nM | 
C=CC(=O)N1CCn2nc(-c3nc(-c4ccc5c(c4)CCN(C)CC5)c4ccsc4c3-c3c(F)cc(F)cc3OCCOC)cc2C1C (stereo not shown) [Compound 996] | < 100 nM |  | A (percent of modification of PIK3CA protein ≥75%) |  | 

— patent publication US20250230138A1, “COMPOUNDS HAVING A T-STRUCTURE FORMED BY AT LEAST FOUR CYCLES FOR USE IN THE TREATMENT OF CANCER AND OTHER INDICATIONS” (TheRas, Inc., priority 2022, published 2025)
